Biological target: Human immunodeficiency virus type 1 integrase (Human immunodeficiency virus 1, UniProt Q7ZJM1)
Assay: Inhibition of Human immunodeficiency virus 1 integrase 3'-processing activity expressed in Escherichia coli using 21-mer DNA and Mg2+ after 2 hrs by polyacrylamide gel electrophoresis

Human immunodeficiency virus type 1 integrase, sequence (Q7ZJM1 whole entry): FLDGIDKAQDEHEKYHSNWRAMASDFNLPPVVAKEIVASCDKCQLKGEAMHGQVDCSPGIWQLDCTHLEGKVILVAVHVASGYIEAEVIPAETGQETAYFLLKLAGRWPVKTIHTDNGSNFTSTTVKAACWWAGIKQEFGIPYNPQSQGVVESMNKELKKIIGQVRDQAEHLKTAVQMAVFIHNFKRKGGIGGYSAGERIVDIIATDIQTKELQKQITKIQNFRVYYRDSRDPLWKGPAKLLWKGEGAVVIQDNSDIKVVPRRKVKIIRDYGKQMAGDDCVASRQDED

Row | IC50 | Structure (SMILES)
1 | 20 nM | CCCCCCCC/C=C\CCCCCCCC(=O)NCCCOCC(O)COP(=O)(O)O[C@H]1C[C@H](n2cc(C)c(=O)[nH]c2=O)O[C@@H]1COP(=O)(O)O[C@H]1C[C@H](n2cnc3c(=O)[nH]c(N)nc32)O[C@@H]1COP(=O)(O)O[C@H]1C[C@H](n2cc(C)c(=O)[nH]c2=O)O[C@@H]1COP(=O)(O)O[C@H]1C[C@H](n2cnc3c(=O)[nH]c(N)nc32)O[C@@H]1COP(=O)(O)O[C@H]1C[C@H](n2cc(C)c(=O)[nH]c2=O)O[C@@H]1COP(=O)(O)O[C@H]1C[C@H](n2cc(C)c(=O)[nH]c2=O)O[C@@H]1COP(=O)(O)O[C@H]1C[C@H](n2cc(C)c(=O)[nH]c2=O)O[C@@H]1COP(=O)(O)O[C@H]1C[C@H](n2cc(C)c(=O)[nH]c2=O)O[C@@H]1COP(=O)(O)O[C@H]1C[C@H](n2cc(C)c(=O)[nH]c2=O)O[C@@H]1COP(=O)(O)O[C@H]1C[C@H](n2cnc3c(=O)[nH]c(N)nc32)O[C@@H]1COP(=O)(O)O[C@H]1C[C@H](n2cnc3c(=O)[nH]c(N)nc32)O[C@@H]1COP(=O)(O)O[C@@H]1C[C@@H](CO)N(C(=O)CCCCCNC(=O)c2ccc(C(=O)O)c(-c3c4ccc(=O)cc-4oc4cc(O)ccc34)c2)C1 (stereo partly specified)
2 | 23 nM | CCCCCCCC/C=C\CCCCCCCC(=O)NCCCOCC(O)COP(=O)(O)O[C@@H]1C[C@@H](COP(=O)(O)O[C@H]2C[C@H](n3cc(C)c(=O)[nH]c3=O)O[C@@H]2COP(=O)(O)O[C@H]2C[C@H](n3cnc4c(=O)[nH]c(N)nc43)O[C@@H]2COP(=O)(O)O[C@H]2C[C@H](n3cc(C)c(=O)[nH]c3=O)O[C@@H]2COP(=O)(O)O[C@H]2C[C@H](n3cnc4c(=O)[nH]c(N)nc43)O[C@@H]2COP(=O)(O)O[C@H]2C[C@H](n3cc(C)c(=O)[nH]c3=O)O[C@@H]2COP(=O)(O)O[C@H]2C[C@H](n3cc(C)c(=O)[nH]c3=O)O[C@@H]2COP(=O)(O)O[C@H]2C[C@H](n3cc(C)c(=O)[nH]c3=O)O[C@@H]2COP(=O)(O)O[C@H]2C[C@H](n3cc(C)c(=O)[nH]c3=O)O[C@@H]2COP(=O)(O)O[C@H]2C[C@H](n3cc(C)c(=O)[nH]c3=O)O[C@@H]2COP(=O)(O)O[C@H]2C[C@H](n3cnc4c(=O)[nH]c(N)nc43)O[C@@H]2COP(=O)(O)O[C@H]2C[C@H](n3cnc4c(=O)[nH]c(N)nc43)O[C@@H]2CO)N(C(=O)CCCCCNC(=O)c2ccc(C(=O)O)c(-c3c4ccc(=O)cc-4oc4cc(O)ccc34)c2)C1 (stereo partly specified)
3 | 18 nM | Cc1cn([C@H]2C[C@H](OP(=O)(S)OC[C@H]3O[C@@H](n4cc(C)c(=O)[nH]c4=O)C[C@@H]3OP(=O)(S)OC[C@H]3O[C@@H](n4cc(C)c(=O)[nH]c4=O)C[C@@H]3OP(=O)(S)OC[C@H]3O[C@@H](n4cnc5c(=O)[nH]c(N)nc54)C[C@@H]3OP(=O)(S)OC[C@H]3O[C@@H](n4cc(C)c(=O)[nH]c4=O)C[C@@H]3OP(=O)(S)OC[C@H]3O[C@@H](n4cnc5c(=O)[nH]c(N)nc54)C[C@@H]3OP(=O)(S)OC[C@H]3O[C@@H](n4cc(C)c(=O)[nH]c4=O)C[C@@H]3OP(=O)(S)OCCCCCCNC(=S)Nc3ccc(-c4c5cc(Br)c(=O)c(Br)c-5oc5c(Br)c(O)c(Br)cc45)c(C(=O)O)c3)[C@@H](COP(=O)(S)O[C@H]3C[C@H](n4cc(C)c(=O)[nH]c4=O)O[C@@H]3COP(=O)(S)O[C@H]3C[C@H](n4cc(C)c(=O)[nH]c4=O)O[C@@H]3COP(=O)(S)O[C@H]3C[C@H](n4cnc5c(=O)[nH]c(N)nc54)O[C@@H]3COP(=O)(S)O[C@H]3C[C@H](n4cnc5c(=O)[nH]c(N)nc54)O[C@@H]3CO)O2)c(=O)[nH]c1=O (stereo partly specified)
4 | 20 nM | Cc1cn([C@H]2C[C@H](OP(=O)(O)OC[C@H]3O[C@@H](n4cc(C)c(=O)[nH]c4=O)C[C@@H]3OP(=O)(O)OC[C@H]3O[C@@H](n4cc(C)c(=O)[nH]c4=O)C[C@@H]3OP(=O)(S)OC[C@H]3O[C@@H](n4cnc5c(=O)[nH]c(N)nc54)C[C@@H]3OP(=O)(O)OC[C@H]3O[C@@H](n4cc(C)c(=O)[nH]c4=O)C[C@@H]3OP(=O)(S)OC[C@H]3O[C@@H](n4cnc5c(=O)[nH]c(N)nc54)C[C@@H]3OP(=O)(O)OC[C@H]3O[C@@H](n4cc(C)c(=O)[nH]c4=O)C[C@@H]3OP(=O)(S)OCCCCCCNC(=S)Nc3ccc(-c4c5cc(Br)c(=O)c(Br)c-5oc5c(Br)c(O)c(Br)cc45)c(C(=O)O)c3)[C@@H](COP(=O)(O)O[C@H]3C[C@H](n4cc(C)c(=O)[nH]c4=O)O[C@@H]3COP(=O)(O)O[C@H]3C[C@H](n4cc(C)c(=O)[nH]c4=O)O[C@@H]3COP(=O)(O)O[C@H]3C[C@H](n4cnc5c(=O)[nH]c(N)nc54)O[C@@H]3COP(=O)(O)O[C@H]3C[C@H](n4cnc5c(=O)[nH]c(N)nc54)O[C@@H]3CO)O2)c(=O)[nH]c1=O (stereo partly specified)
5 | 22 nM | Cc1cn([C@H]2C[C@H](OP(=O)(O)OC[C@H]3O[C@@H](n4cnc5c(=O)[nH]c(N)nc54)C[C@@H]3OP(=O)(O)OC[C@H]3O[C@@H](n4cc(C)c(=O)[nH]c4=O)C[C@@H]3OP(=O)(O)OC[C@H]3O[C@@H](n4cnc5c(=O)[nH]c(N)nc54)C[C@@H]3OP(=O)(O)OC[C@H]3O[C@@H](n4cc(C)c(=O)[nH]c4=O)C[C@@H]3OP(=O)(O)OCCCCCCNC(=S)Nc3ccc(-c4c5cc(Br)c(=O)c(Br)c-5oc5c(Br)c(O)c(Br)cc45)c(C(=O)O)c3)[C@@H](COP(=O)(O)O[C@H]3C[C@H](n4cc(C)c(=O)[nH]c4=O)O[C@@H]3COP(=O)(S)O[C@H]3C[C@H](n4cc(C)c(=O)[nH]c4=O)O[C@@H]3COP(=O)(S)O[C@H]3C[C@H](n4cc(C)c(=O)[nH]c4=O)O[C@@H]3COP(=O)(S)O[C@H]3C[C@H](n4cc(C)c(=O)[nH]c4=O)O[C@@H]3COP(=O)(O)O[C@H]3C[C@H](n4cnc5c(=O)[nH]c(N)nc54)O[C@@H]3COP(=O)(O)O[C@H]3C[C@H](n4cnc5c(=O)[nH]c(N)nc54)O[C@@H]3CO)O2)c(=O)[nH]c1=O (stereo partly specified)
6 | 24 nM | Cc1cn([C@H]2C[C@H](OP(=O)(O)OC[C@H]3O[C@@H](n4cc(C)c(=O)[nH]c4=O)C[C@@H]3OP(=O)(S)OC[C@H]3O[C@@H](n4cc(C)c(=O)[nH]c4=O)C[C@@H]3OP(=O)(O)OC[C@H]3O[C@@H](n4cnc5c(=O)[nH]c(N)nc54)C[C@@H]3OP(=O)(O)OC[C@H]3O[C@@H](n4cc(C)c(=O)[nH]c4=O)C[C@@H]3OP(=O)(S)OC[C@H]3O[C@@H](n4cnc5c(=O)[nH]c(N)nc54)C[C@@H]3OP(=O)(O)OC[C@H]3O[C@@H](n4cc(C)c(=O)[nH]c4=O)C[C@@H]3OP(=O)(O)OCCCCCCNC(=S)Nc3ccc(-c4c5cc(Br)c(=O)c(Br)c-5oc5c(Br)c(O)c(Br)cc45)c(C(=O)O)c3)[C@@H](COP(=O)(O)O[C@H]3C[C@H](n4cc(C)c(=O)[nH]c4=O)O[C@@H]3COP(=O)(S)O[C@H]3C[C@H](n4cc(C)c(=O)[nH]c4=O)O[C@@H]3COP(=O)(O)O[C@H]3C[C@H](n4cnc5c(=O)[nH]c(N)nc54)O[C@@H]3COP(=O)(O)O[C@H]3C[C@H](n4cnc5c(=O)[nH]c(N)nc54)O[C@@H]3CO)O2)c(=O)[nH]c1=O (stereo partly specified)
7 | 1200 nM | Cc1cn([C@H]2C[C@H](O)[C@@H](COP(=O)(O)O[C@H]3CCO[C@@H]3COP(=O)(O)O[C@H]3CCO[C@@H]3COP(=O)(O)O[C@H]3CCO[C@@H]3COP(=O)(O)O[C@H]3CCO[C@@H]3COP(=O)(O)O[C@H]3CCO[C@@H]3COP(=O)(O)O[C@H]3CCO[C@@H]3COP(=O)(O)O[C@H]3CCO[C@@H]3COP(=O)(O)O[C@H]3CCO[C@@H]3COP(=O)(O)O[C@H]3CCO[C@@H]3COP(=O)(O)O[C@H]3CCO[C@@H]3COP(=O)(O)OCCCCCCNC(=O)c3cc(Cl)c(C(=O)O)c(-c4c5cc(Cl)c(=O)c(Cl)c-5oc5c(Cl)c(O)c(Cl)cc45)c3Cl)O2)c(=O)[nH]c1=O
8 | 280 nM | Cc1cn([C@H]2C[C@H](OP(=O)(O)OC[C@H]3O[C@@H](n4cnc5c(=O)[nH]c(N)nc54)C[C@@H]3OP(=O)(O)OC[C@H]3O[C@@H](n4cc(C)c(=O)[nH]c4=O)C[C@@H]3OP(=O)(O)OC[C@H]3O[C@@H](n4cnc5c(=O)[nH]c(N)nc54)C[C@@H]3OP(=O)(O)OC[C@H]3O[C@@H](n4cc(C)c(=O)[nH]c4=O)C[C@@H]3O)[C@@H](COP(=O)(O)O[C@H]3CCO[C@@H]3COP(=O)(O)O[C@H]3CCO[C@@H]3COP(=O)(O)O[C@H]3CCO[C@@H]3COP(=O)(O)O[C@H]3CCO[C@@H]3COP(=O)(O)O[C@H]3CCO[C@@H]3COP(=O)(O)O[C@H]3CCO[C@@H]3COP(=O)(O)OCCCCCCNC(=O)c3cc(Cl)c(C(=O)O)c(-c4c5cc(Cl)c(=O)c(Cl)c-5oc5c(Cl)c(O)c(Cl)cc45)c3Cl)O2)c(=O)[nH]c1=O
9 | 250 nM | Cc1cn([C@H]2C[C@H](OP(=O)(O)OC[C@H]3OCC[C@@H]3OP(=O)(O)OC[C@H]3OCC[C@@H]3OP(=O)(O)OC[C@H]3OCC[C@@H]3OP(=O)(O)OC[C@H]3OCC[C@@H]3OP(=O)(O)OC[C@H]3OCC[C@@H]3OP(=O)(O)OC[C@H]3OCC[C@@H]3OP(=O)(O)OC[C@H]3O[C@@H](n4cc(C)c(=O)[nH]c4=O)C[C@@H]3O)[C@@H](COP(=O)(O)O[C@H]3C[C@H](n4cc(C)c(=O)[nH]c4=O)O[C@@H]3COP(=O)(O)O[C@H]3C[C@H](n4cnc5c(=O)[nH]c(N)nc54)O[C@@H]3COP(=O)(O)O[C@H]3C[C@H](n4cnc5c(=O)[nH]c(N)nc54)O[C@@H]3COP(=O)(O)OCCCCCCNC(=O)c3cc(Cl)c(C(=O)O)c(-c4c5cc(Cl)c(=O)c(Cl)c-5oc5c(Cl)c(O)c(Cl)cc45)c3Cl)O2)c(=O)[nH]c1=O
10 | 1300 nM | Cc1cn([C@H]2C[C@H](O)[C@@H](COP(=O)(O)OCCCOP(=O)(O)OCCCOP(=O)(O)OCCCOP(=O)(O)OCCCOP(=O)(O)OCCCOP(=O)(O)OCCCOP(=O)(O)OCCCOP(=O)(O)OCCCOP(=O)(O)OCCCOP(=O)(O)OCCCOP(=O)(O)OCCCCCCNC(=O)c3cc(Cl)c(C(=O)O)c(-c4c5cc(Cl)c(=O)c(Cl)c-5oc5c(Cl)c(O)c(Cl)cc45)c3Cl)O2)c(=O)[nH]c1=O
11 | 250 nM | Cc1cn([C@H]2C[C@H](OP(=O)(O)OC[C@H]3O[C@@H](n4cnc5c(=O)[nH]c(N)nc54)C[C@@H]3OP(=O)(O)OC[C@H]3O[C@@H](n4cc(C)c(=O)[nH]c4=O)C[C@@H]3OP(=O)(O)OC[C@H]3O[C@@H](n4cnc5c(=O)[nH]c(N)nc54)C[C@@H]3OP(=O)(O)OC[C@H]3O[C@@H](n4cc(C)c(=O)[nH]c4=O)C[C@@H]3O)[C@@H](COP(=O)(O)OCCCOP(=O)(O)OCCCOP(=O)(O)OCCCOP(=O)(O)OCCCOP(=O)(O)OCCCOP(=O)(O)OCCCOP(=O)(O)OCCCCCCNC(=O)c3cc(Cl)c(C(=O)O)c(-c4c5cc(Cl)c(=O)c(Cl)c-5oc5c(Cl)c(O)c(Cl)cc45)c3Cl)O2)c(=O)[nH]c1=O
